Source: US10647721B2, “Bicyclic heteroaryl derivatives” (Hoffmann-La Roche Inc., priority 2016, dated 2020)

The compounds below were run on γ-secretase (assay: Cellular γ-secretase assay (inhibition of Aβ42 secretion, AlphaLisa)). Settings: human neuroglioma H4 cells overexpressing human APP695 Swedish double mutation, 24 hr compound incubation.
Format: cell-based
Description: Cellular γ-Secretase Assay
Human neuroglioma H4 cells overexpressing human APP695 with the Swedish double mutation (K595N/M596L) were plated at 30,000 cells/well/100 μl in 96-well plates in IMDM media containing 10% FCS, 0.2 mg/l Hygromycin B and incubated at 37° C., 5% CO2.
3-4 hr post plating, compounds are a diluted in media and 50 μl is added as 1.5-fold concentrate to achieve the final concentration. Compound incubation is performed for 24 hr. Final doses typically range from 4 μm down to 0.0013 μm in half-log steps resulting in a eight point dose response curve.
Appropriate controls using vehicle only and reference compound were applied to this assay. The final concentration of Me2SO was 0.4%.
After incubation at 37° C., 5% CO2, the supernatant was subjected to quantification of secreted Aβ42 by the means of an AlphaLisa assay kit (Human Amyloid beta 1-42 Kit: Cat # AL203C, Perkin Elmer). 20 μl of the cell culture supernatant was transferred to an assay plate. Then 10 μl of a mixture of the AlphaLisa coupled capture antibody and the biotinylated detection antibody was added and incubated for 3 hours at room temperature while softly shaking the assay plate. After a further addition of 20 μl of the Donor beads the assay plate was incubated for 30 min at room temperature and constant shaking without exposure to direct light. The assay plate was then read on a Paradigm AlphaLisa Reader using the build-in program with excitation at 680 nm and emission at […].
The measured signals were then used to calculate IC50 values for inhibition of Aβ42 secretion by nonlinear regression fit analysis using XLfit 5.3 software (IDBS).
`COc1cc(Nc2nc3n(n2)CCCN3c2ccc(F)c(F)c2)ccc1-n1cnc(F)c1` [Example 40, 4-(3,4-difluorophenyl)-N-[4-(4-fluoroimidazol-1-yl)-3-methoxy-phenyl]-6,7-dihydro-5H-[1,2,4]triazolo[1,5-a]pyrimidin-2-amine] showed an EC50 of 20.3 nM. In the case of `Cc1ncn(-c2ccc(Nc3nc4n(n3)CCCN4c3ccc(F)c(F)c3)cc2F)n1` [Example 11, 4-(3,4-difluorophenyl)-N-[3-fluoro-4-(3-methyl-1,2,4-triazol-1-yl)phenyl]-6,7-dihydro-5H-[1,2,4]triazolo[1,5-a]pyrimidin-2-amine], the EC50 is reported as 34.5 nM. In the case of `Cc1ncn(-c2ccc(Nc3nc4n(n3)CCCN4c3ccc(F)cc3)cc2OC(F)F)n1` [Example 37, N-[3-(difluoromethoxy)-4-(3-methyl-1,2,4-triazol-1-yl)phenyl]-4-(4-fluorophenyl)-6,7-dihydro-5H-[1,2,4]triazolo[1,5-a]pyrimidin-2-amine], the EC50 is reported as 34.2 nM. Compound `Fc1ccc(N2CCCn3nc(Nc4ccc(-n5cnc(Cl)c5)c(F)c4)nc32)cc1` [Example 36, N-[4-(4-chloroimidazol-1-yl)-3-fluoro-phenyl]-4-(4-fluorophenyl)-6,7-dihydro-5H-[1,2,4]triazolo[1,5-a]pyrimidin-2-amine] has an EC50 of 39.9 nM. With `COc1cc(Nc2nc3n(n2)CCCN3c2cc(F)cc(F)c2)ccc1-n1cnc(Cl)c1` [Example 42, N-[4-(4-chloroimidazol-1-yl)-3-methoxy-phenyl]-4-(3,5-difluorophenyl)-6,7-dihydro-5H-[1,2,4]triazolo[1,5-a]pyrimidin-2-amine] the EC50 was 7.4 nM. Compound `COc1cc(Nc2nc3n(n2)CCCN3c2ccc(F)c(F)c2)ccc1-n1cnc(C)n1` [Example 2, 4-(3,4-difluorophenyl)-N-[3-methoxy-4-(3-methyl-1,2,4-triazol-1-yl)phenyl]-6,7-dihydro-5H-[1,2,4]triazolo[1,5-a]pyrimidin-2-amine] has an EC50 of 14.2 nM. With `COc1cc(Nc2nc3n(n2)CCN3c2ccc(F)c(F)c2F)ccc1-n1cnc(Cl)c1` [Example 45, N-[4-(4-chloroimidazol-1-yl)-3-methoxy-phenyl]-4-(2,3,4-trifluorophenyl)-5,6-dihydroimidazo[1,2-b][1,2,4]triazol-2-amine] the EC50 was 30 nM. For `COc1cc(Nc2nc3n(n2)CCCN3c2ccc(F)cc2)ccc1-n1cnc(Cl)c1` [Example 34, N-[4-(4-chloroimidazol-1-yl)-3-methoxy-phenyl]-4-(4-fluorophenyl)-6,7-dihydro-5H-[1,2,4]triazolo[1,5-a]pyrimidin-2-amine], the EC50 was 10 nM. `Cc1ncc(-c2ccc(Nc3nc4n(n3)CCCN4c3ccc(F)c(F)c3)cc2F)o1` [Example 19, 4-(3,4-difluorophenyl)-N-[3-fluoro-4-(2-methyloxazol-5-yl)phenyl]-6,7-dihydro-5H-[1,2,4]triazolo[1,5-a]pyrimidin-2-amine] showed an EC50 of 20.4 nM. In the case of `COc1cc(Nc2nc3n(n2)CCCN3c2ccc(F)c(F)c2)cnc1-n1cnc(Cl)c1` [Example 5, N-[6-(4-chloroimidazol-1-yl)-5-methoxy-3-pyridyl]-4-(3,4-difluorophenyl)-6,7-dihydro-5H-[1,2,4]triazolo[1,5-a]pyrimidin-2-amine], the EC50 is reported as 21.4 nM. Compound `Cc1cn(-c2ccc(Nc3nc4n(n3)CCCN4c3ccc(F)c(F)c3)cc2)nn1` [Example 47, 4-(3,4-difluorophenyl)-N-[4-(4-methyltriazol-1-yl)phenyl]-6,7-dihydro-5H-[1,2,4]triazolo[1,5-a]pyrimidin-2-amine] has an EC50 of 52.1 nM. `Fc1ccc(N2CCCn3nc(Nc4ccc(-n5cnc(Cl)n5)c(F)c4)nc32)cc1F` [Example 21, N-[4-(3-chloro-1,2,4-triazol-1-yl)-3-fluoro-phenyl]-4-(3,4-difluorophenyl)-6,7-dihydro-5H-[1,2,4]triazolo[1,5-a]pyrimidin-2-amine] was tested, and the EC50 was 102 nM. `N#Cc1cc(Nc2nc3n(n2)CCCN3c2ccc(F)c(F)c2)ccc1-n1cnc(C(F)F)c1` [Example 26, 2[4-(difluoromethyl)imidazol-1-yl]-5-[[4-(3,4-difluorophenyl)-6,7-dihydro-5H-[1,2,4]triazolo[1,5-a]pyrimidin-2-yl]amino]benzonitrile] showed an EC50 of 23.8 nM. For `COc1cc(Nc2nc3n(n2)CCCN3c2cccc(F)c2)ccc1-n1cnc(C)n1` [Example 31, 4-(3-fluorophenyl)-N-[3-methoxy-4-(3-methyl-1,2,4-triazol-1-yl)phenyl]-6,7-dihydro-5H-[1,2,4]triazolo[1,5-a]pyrimidin-2-amine], the EC50 was 30.4 nM. `Cc1ncn(-c2ccc(Nc3nc4n(n3)CCCN4c3ccc(F)c(F)c3)cc2C#N)n1` [Example 30, 5-[[4-(3,4-difluorophenyl)-6,7-dihydro-5H-[1,2,4]triazolo[1,5-a]pyrimidin-2-yl]amino]-2-(3-methyl-1,2,4-triazol-1-yl)benzonitrile] was tested, and the EC50 was 25.1 nM. For `COc1cc(Nc2nc3n(n2)CCCCN3c2ccc(F)c(F)c2)ccc1-n1cnc(Cl)c1` [Example 9, N-[4-(4-chloroimidazol-1-yl)-3-methoxy-phenyl]-4-(3,4-difluorophenyl)-5,6,7,8-tetrahydro-[1,2,4]triazolo[1,5-a][1,3]diazepin-2-amine], the EC50 was 22.4 nM. For `COc1cc(Nc2nc3n(n2)CCCN3c2ccc(F)c(F)c2)ccc1-n1cnc(Cl)c1` [Example 6, N-[4-(4-chloroimidazol-1-yl)-3-methoxy-phenyl]-4-(3,4-difluorophenyl)-6,7-dihydro-5H-[1,2,4]triazolo[1,5-a]pyrimidin-2-amine], the EC50 was 8.3 nM. With `Cc1ncc(-c2ccc(Nc3nc4n(n3)CCCN4c3ccc(F)c(F)c3)cc2)o1` [Example 22, 4-(3,4-difluorophenyl)-N-[4-(2-methyloxazol-5-yl)phenyl]-6,7-dihydro-5H-[1,2,4]triazolo[1,5-a]pyrimidin-2-amine] the EC50 was 19.8 nM. Compound `COc1cc(Nc2nc3n(n2)CCCN3c2ccc(F)c(F)c2)ccc1-c1cnn(C)c1` [Example 20, 4-(3,4-difluorophenyl)-N-[3-methoxy-4-(1-methylpyrazol-4-yl)phenyl]-6,7-dihydro-5H-[1,2,4]triazolo[1,5-a]pyrimidin-2-amine] has an EC50 of 28.9 nM. `COc1cc(Nc2nc3n(n2)CCCN3c2ccc(F)c(F)c2F)ccc1-n1cnc(Cl)c1` [Example 17, N-[4-(4-chloroimidazol-1-yl)-3-methoxy-phenyl]-4-(2,3,4-trifluorophenyl)-6,7-dihydro-5H-[1,2,4]triazolo[1,5-a]pyrimidin-2-amine] was tested, and the EC50 was 13 nM. Compound `COc1cc(Nc2nc3n(n2)CCCN3c2ccc(F)c(F)c2)ccc1-n1cnc(Cl)n1` [Example 12, N-[4-(3-chloro-1,2,4-triazol-1-yl)-3-methoxy-phenyl]-4-(3,4-difluorophenyl)-6,7-dihydro-5H-[1,2,4]triazolo[1,5-a]pyrimidin-2-amine] has an EC50 of 29.8 nM. Compound `COc1cc(Nc2nc3n(n2)CCCN3c2cc(F)cc(F)c2)ccc1-n1cnc(C)n1` [Example 41, 4-(3,5-difluorophenyl)-N-[3-methoxy-4-(3-methyl-1,2,4-triazol-1-yl)phenyl]-6,7-dihydro-5H-[1,2,4]triazolo[1,5-a]pyrimidin-2-amine] has an EC50 of 14.2 nM. In the case of `N#Cc1cc(Nc2nc3n(n2)CCCN3c2ccc(F)c(F)c2)ccc1-n1cnc(Cl)c1` [Example 24, 2-(4-chloroimidazol-1-yl)-5-[[4-(3,4-difluorophenyl)-6,7-dihydro-5H-[1,2,4]triazolo[1,5-a]pyrimidin-2-yl]amino]benzonitrile], the EC50 is reported as 9 nM. Compound `COc1cc(Nc2nc3n(n2)CCCN3c2ccccc2)ccc1-n1cnc(C)n1` [Example 48, N-[3-methoxy-4-(3-methyl-1,2,4-triazol-1-yl)phenyl]-4-phenyl-6,7-dihydro-5H-[1,2,4]triazolo[1,5-a]pyrimidin-2-amine] has an EC50 of 94.7 nM. For `Fc1ccc(N2CCCn3nc(Nc4ccc(-n5cnc(Cl)c5)c(Cl)c4)nc32)cc1F` [Example 28, N-[3-chloro-4-(4-chloroimidazol-1-yl)phenyl]-4-(3,4-difluorophenyl)-6,7-dihydro-5H-[1,2,4]triazolo[1,5-a]pyrimidin-2-amine], the EC50 was 137 nM.
